Measured values published in PMC10281575, “PfCRT mutations conferring piperaquine resistance in falciparum malaria shape the kinetics of quinoline drug binding and transport” (PLOS Pathogens, 2023).
Values joined by “and” are separate entries in the source; they are usually repeats but may differ in a detail not shown here. Identical values can stand only once. Like-named read-outs stand apart in the source and are kept apart here.

Target: T1, PfCRT^Dd2 (Plasmodium falciparum, UniProt Q8IBZ9, A220S/I356T/K76T/M74I/N326S/N75E/Q271E/R371I)
T1 sequence (Q8IBZ9 1-424 M74I/N75E/K76T/A220S/Q271E/N326S/I356T/R371I): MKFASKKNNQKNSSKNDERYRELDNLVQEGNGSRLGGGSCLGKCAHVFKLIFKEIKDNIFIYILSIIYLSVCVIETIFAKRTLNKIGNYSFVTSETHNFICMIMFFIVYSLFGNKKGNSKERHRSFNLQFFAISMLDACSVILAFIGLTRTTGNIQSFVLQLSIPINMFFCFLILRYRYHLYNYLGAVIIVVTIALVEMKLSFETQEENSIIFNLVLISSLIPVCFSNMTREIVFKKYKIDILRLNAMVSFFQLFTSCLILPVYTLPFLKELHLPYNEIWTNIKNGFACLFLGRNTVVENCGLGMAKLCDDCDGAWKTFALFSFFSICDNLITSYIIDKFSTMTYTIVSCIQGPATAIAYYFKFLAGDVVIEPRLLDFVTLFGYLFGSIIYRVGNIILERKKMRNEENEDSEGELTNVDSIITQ
Assay: Competition kinetics of drug transport (radiolabeled substrate plus cold inhibitor), PfCRT^Dd2-expressing oocytes
Type: cell-based
Set-up: expressed in transfected cells; host or cells: Xenopus laevis oocytes injected with in vitro transcribed RNA (pSP64T)
Conditions: for PfCRTDd2-mediated PPQ transport 500 µM PPQ: single replicates; for Vmax, maximal velocity of drug transport: global fit; for β, partiality factor: factor on transport of the labeled drug by the other drug
Procedure: The experimental procedure and the data analysis were as described above.
The difference between the two models lies in the value of α, a parameter describing how much the affinity for the substrate changes when the inhibitor is already bound, and vice versa. […] The resulting Vmax,app values and the Vmax,app/KM,app ratios were plotted as a function of the inhibitor concentration (Fig 5A).
Drug transport assays were performed as previously described. Briefly, measurements of radiolabeled drug uptake were made over 1 h, unless otherwise specified. […] Where specified, one or more unlabeled drugs were also present at the indicated concentrations. […] The uptake assays were terminated by removing the oocytes from the reaction medium and washing them three times with 2 mL of ice-cold ND96 buffer. Each oocyte was transferred to a separate scintillation vial and lysed by the addition of 200 μL of a 5% SDS solution. The radioactivity in the sample was measured using a liquid scintillation analyser Tri-Carb 4910 TR (PerkinElmer). Water-injected oocytes were analyzed in parallel as a negative control. The buffer from each condition was measured in duplicate in parallel to each experiment to transform counts per minute into pmol of drug. Drug uptake attributable to PfCRT was determined by subtracting the background uptake from water-injected oocytes from that of PfCRT-expressing oocytes. In all cases, at least three independent experiments were performed on oocytes from different frogs, and for each condition in an experiment, measurements were made from 10 oocytes per treatment.
The following equations were adopted from Segel (1993), and the reader is referred to that text for the assumptions made in the author’s approach in the derivation of each equation [31]. The concentration of substrate is denoted as [S1] and the concentration of the inhibiting substrate is denoted as [S2]. KS1 and KS2 are the dissociation constants for the respective substrate-protein complexes.
Analyses of the kinetic data were performed using SigmaPlot version 13.0 and Python. The drug competition models were globally fit to the kinetic data using the least-squares method and ranked according to their corrected Akaike information criterion difference (ΔAICC) and their Akaike weight, using Python. The two top-ranked models were compared using an F-test.
This factor reflects how much the affinity of the transporter for one drug changes when the other drug is already bound in the protein cavity. In the former model, α > 0 and α ≠ 1. In the latter model, it could be thought of as if α = 1. Because of this, discriminating between the two models also means determining the value of α. In Mixed-type (Partial) inhibition, the apparent maximal velocity (Vmax,app) is given by Eq 22, Vmax,app=Vmax(1+β[S2]/αKS2)/(1+[S2]/αKS2) (Eq 22)
Vmax,app is the maximal rate of substrate transport at a certain inhibitor concentration. The half-maximal inhibitory concentration is given by the term in the denominator different from [S2], which in this case is αKS2. This means that by plotting Vmax,app as a function of [S2], the value of αKS2 can be derived after fitting the curve to Eq 23.
The half-maximal inhibitory concentration derived from this hyperbolic equation is equal to KS2. By plotting Vmax,app/KM,app as a function of [S2], one can derive KS2 after fitting the curve to Eq 25. The value of α can then be calculated dividing αKS2 by KS2.

Question: `Clc1ccc2c(N3CCN(CCCN4CCN(c5ccnc6cc(Cl)ccc56)CC4)CC3)ccnc2c1` [PPQ, piperaquine] was tested. Which “PfCRTDd2-mediated PPQ transport 500 µM PPQ” value (50 µM CQ) did it give?
Answer: 89.07 pmol oocyte-1 h-1 and 87.88 pmol oocyte-1 h-1 and 107.53 pmol oocyte-1 h-1

Question: And the “PfCRTDd2-mediated PPQ transport 500 µM PPQ” value (125 µM CQ)?
Answer: 90.95 pmol oocyte-1 h-1 and 93.39 pmol oocyte-1 h-1 and 84.66 pmol oocyte-1 h-1

Question: And the “PfCRTDd2-mediated PPQ transport 500 µM PPQ” value (200 µM CQ)?
Answer: 77.82 pmol oocyte-1 h-1 and 87.40 pmol oocyte-1 h-1 and 96.04 pmol oocyte-1 h-1

Question: What about the “PfCRTDd2-mediated PPQ transport 500 µM PPQ” value (400 µM CQ) of the same compound?
Answer: 65.21 pmol oocyte-1 h-1 and 77.83 pmol oocyte-1 h-1 and 82.19 pmol oocyte-1 h-1

Question: And the “v / (Vmax - v)” value (1/[PPQ] 0.002000 µM-1)?
Answer: 0.5629

Question: And the “v / (Vmax - v)” value (1/[PPQ] 0.002857 µM-1)?
Answer: 0.5805

Question: And the “v / (Vmax - v)” value (1/[PPQ] 0.005000 µM-1)?
Answer: 0.7051

Question: What about the “v / (Vmax - v)” value (1/[PPQ] 0.008000 µM-1) of the same compound?
Answer: 0.9675

Question: And the “v / (Vmax - v)” value (1/[PPQ] 0.020000 µM-1)?
Answer: 1.1790

Question: And the “most plausible inhibition model” value (16 models, ΔAICC, Akaike weight, F-test, label = cold inhibitor of the other drug's transport)?
Answer: partial noncompetitive inhibition

Question: And the “Vmax, maximal velocity of drug transport” value (Mixed (Partial) model, drug as radiolabeled substrate)?
Answer: 130 ± 3 pmol oocyte^-1 h^-1

Question: What about the Kd (Mixed (Partial) model, drug as cold inhibitor, read-out: KS, dissociation constant for the PfCRT-substrate complex) of the same compound?
Answer: 210 ± 50 µM

Question: What about the Kd (Mixed (Partial) model, drug as radiolabeled substrate, read-out: KS, dissociation constant for the PfCRT-substrate complex) of the same compound?
Answer: 125 ± 9 µM

Question: And the “β, partiality factor” value (Mixed (Partial) model)?
Answer: 0.63 ± 0.08

Question: And the “α, KS interaction factor” value (Mixed (Partial) model, label = radiolabeled substrate, other drug cold inhibitor)?
Answer: 1.2 ± 0.3

Question: And the “Vmax, maximal velocity of drug transport” value (Noncompetitive (Partial) model, drug as radiolabeled substrate, other drug as cold inhibitor)?
Answer: 131 pmol oocyte^-1 h^-1 and 131 ± 2 pmol oocyte^-1 h^-1

Question: What about the Kd (Noncompetitive (Partial) model, drug as cold inhibitor, read-out: KS, dissociation constant for the PfCRT-substrate complex) of the same compound?
Answer: 201 µM and 200 µM

Question: And the Kd (Noncompetitive (Partial) model, drug as radiolabeled substrate, read-out: KS, dissociation constant for the PfCRT-substrate complex)?
Answer: 130 ± 6 µM

Question: And the “β, partiality factor” value (Noncompetitive (Partial) model)?
Answer: 0.60 and 0.60 ± 0.06

Question: What about the “KMapp ([3H]PPQ + CQ)” value ([CQ] 0 µM) of the same compound?
Answer: 122.92 µM

Question: And the “Vmaxapp ([3H]PPQ + CQ)” value ([CQ] 0 µM)?
Answer: 130.71 pmol oocyte-1 h-1

Question: And the “Vmaxapp/KMapp ([3H]PPQ + CQ)” value ([CQ] 0 µM)?
Answer: 1.0634 h⁻¹

Question: And the “KMapp ([3H]PPQ + CQ)” value ([CQ] 25 µM)?
Answer: 130.31 µM

Question: And the “Vmaxapp ([3H]PPQ + CQ)” value ([CQ] 25 µM)?
Answer: 125.79 pmol oocyte-1 h-1

Question: And the “Vmaxapp/KMapp ([3H]PPQ + CQ)” value ([CQ] 25 µM)?
Answer: 0.9653 h⁻¹

Question: And the “KMapp ([3H]PPQ + CQ)” value ([CQ] 50 µM)?
Answer: 129.68 µM

Question: And the “Vmaxapp ([3H]PPQ + CQ)” value ([CQ] 50 µM)?
Answer: 119.39 pmol oocyte-1 h-1

Question: What about the “Vmaxapp/KMapp ([3H]PPQ + CQ)” value ([CQ] 50 µM) of the same compound?
Answer: 0.9206 h⁻¹

Question: And the “KMapp ([3H]PPQ + CQ)” value ([CQ] 125 µM)?
Answer: 128.38 µM

Question: And the “Vmaxapp ([3H]PPQ + CQ)” value ([CQ] 125 µM)?
Answer: 113.74 pmol oocyte-1 h-1

Question: And the “Vmaxapp/KMapp ([3H]PPQ + CQ)” value ([CQ] 125 µM)?
Answer: 0.8860 h⁻¹

Question: And the “KMapp ([3H]PPQ + CQ)” value ([CQ] 200 µM)?
Answer: 133.02 µM

Question: What about the “Vmaxapp ([3H]PPQ + CQ)” value ([CQ] 200 µM) of the same compound?
Answer: 109.91 pmol oocyte-1 h-1

Question: What about the “Vmaxapp/KMapp ([3H]PPQ + CQ)” value ([CQ] 200 µM) of the same compound?
Answer: 0.8262 h⁻¹

Question: And the “KMapp ([3H]PPQ + CQ)” value ([CQ] 400 µM)?
Answer: 140.80 µM

Question: And the “Vmaxapp ([3H]PPQ + CQ)” value ([CQ] 400 µM)?
Answer: 99.57 pmol oocyte-1 h-1

Question: What about the “Vmaxapp/KMapp ([3H]PPQ + CQ)” value ([CQ] 400 µM) of the same compound?
Answer: 0.7072 h⁻¹

Question: And the Kd (secondary plot, half-maximum inhibitory concentration of Vmax,app versus inhibitor concentration, read-out: αKS, dissociation constant between the drug and the PfCRT complex with the other drug)?
Answer: 205 ± 50 µM

Question: What about the “α (αKS divided by KS)” value (secondary plots, label = prebound drug) of the same compound?
Answer: 0.9 ± 0.7
